Source: patent publication US20250188092A1, “RIFAMYCIN ANALOGS” (THE REGENTS OF THE UNIVERSITY OF MICHIGAN, priority 2021, published 2025)
Values after ≈ are worked out from the molar mass of the structure shown. Where two headings read alike, the source gives them in different places.

What was measured:
[1] = tested on: non-replicating cultures of M. tuberculosis H37Rv transformed with lux ABCDE; assay: microbe, parasite or virus in culture; type: cell-based, Mycobacterium tuberculosis; conditions: for MIC90: Mycobacterium tuberculosis, H37RV, ≥90% reduction in luminescence, read-out: MIC90 LORA; for MIC90 LORA/MABA: ratio of LORA MIC90 to MABA MIC90
[2] = tested on: M. tuberculosis transformed with luxABCDE; assay: microbe, parasite or virus in culture; type: cell-based, Mycobacterium tuberculosis
[3] = Mycobacterium tuberculosis, 168 h, […], ≥99% reduction in luminescence, read-out: MBC99 Day 7 (Lux Assay) MBC

Compound | MIC90 [1] [µM] | MBC99 Day 7 (Lux Assay) MBC Rel to RMP [2] | MBC [2, 3] [µM] | MIC90 LORA Rel to RMP [1] | MIC90 LORA/MABA [1] | MIC90 LORA Rel to RMP ([1]; LORA MIC90 relative to rifampin (RMP = 1)) | MIC90 ([2]; Mycobacterium tuberculosis, 168 h, day 7 of time-kill study) [µM] | MBC ([2]; Mycobacterium tuberculosis, 168 h, day 7 of time-kill study, read-out: MBC99) [µM]
CCC(=O)N1CCN(Cc2cccc(COc3cccc4oc5c6c(=O)c7c(O)c(C)c8c(c7c-5nc34)C(=O)[C@@](C)(O/C=C/[C@H](OC)[C@@H](C)[C@@H](OC(C)=O)[C@H](C)[C@H](O)[C@H](C)[C@@H](O)[C@@H](C)/C=C/C=C(/C)C(=O)N6)O8)c2)CC1 [Compound 11d, (7S,9E,11S,12R,13S,14R,15R,16R,17S,1S,19E,21Z)-2,15,17-Trihydroxy-11-methoxy-3,7,12,14,16,18,22-heptamethyl-6,23,37-trioxo-32-{(3-[(4-propanoylpiperazin-1-yl)methyl]phenyl}methoxy)-8,27,38-trioxa-24,34-diazahexacyclo[23.11.1.1^4,7.0^5,36.0^26,35.0^28,33]octatriaconta-1(36)2,4,9,19,21,25,28,30,32,34-undecaen-13-yl acetate] | < 0.1 | 0.08 | 0.058 | – | – | – | – | –
CO[C@H]1/C=C/O[C@@]2(C)Oc3c(C)c(O)c4c(=O)c(c5oc6cccc(OCc7ccc(CN8CCN(C)CC8)cc7)c6nc-5c4c3C2=O)NC(=O)/C(C)=C\C=C\[C@H](C)[C@H](O)[C@@H](C)[C@@H](O)[C@@H](C)[C@H](OC(C)=O)[C@@H]1C [Compound 16e, (7S,9E,11S,12R,13S,14R,15R,16R,17S,18S,19E,21Z)-2,15,17-trihydroxy-11-methoxy-3,7,12,14,16,18,22-heptamethyl-32-({4-[(4-methylpiperazin-1-yl)methyl]phenyl}methoxy)-6,23,37-trioxo-8,27,38-trioxa-24,34-diazahexacyclo[23.11.1.1^4,7.0^5,36.0^26,35.0^28,33]octatriaconta-1,3,5(36)9,19,21,25,28,30,32,34-undecaen-13-yl acetate] | 0.036 | 0.14 | 0.06 | 1.3 | 5.6 | – | – | –
CO[C@H]1/C=C/O[C@@]2(C)Oc3c(C)c(O)c4c(O)c(c(/C=N/N5CCN(C)CC5)c(O)c4c3C2=O)NC(=O)/C(C)=C\C=C\[C@H](C)[C@H](O)[C@@H](C)[C@@H](O)[C@@H](C)[C@H](OC(C)=O)[C@@H]1C [RMP, rifampin, reference compound] | 0.206 (≈ 0.17 µg/mL) | 1 | 0.463 (≈ 0.381 µg/mL) | – | 7.6 | 1 | 0.03 (≈ 0.0247 µg/mL) | 0.463 (≈ 0.381 µg/mL)
CO[C@H]1/C=C/O[C@@]2(C)Oc3c(C)c(O)c4c(=O)c(c5oc6cc(N7CCN(C(=O)c8ccccc8)CC7)cc(OCc7ccc(CN8CCOCC8)cc7)c6nc-5c4c3C2=O)NC(=O)/C(C)=C\C=C\[C@H](C)[C@H](O)[C@@H](C)[C@@H](O)[C@@H](C)[C@H](OC(C)=O)[C@@H]1C [Compound 17m, (7S,9E,11S,12R,13S,14R,15R,16R,17S,18S,19E,21Z)-30-(4-benzoylpiperazin-1-yl)-2,15,17-trihydroxy-1-methoxy-3,7,12,14,16,18,22-heptamethyl-32-{[4-(morpholin-4-ylmethyl)phenyl]methoxy}-6,23,37-trioxo-8,27,38-trioxa-24,34-diazahexacyclo-[23.11.1.1^4,7.0^5,36.0^26,35.0^28,33]octatriaconta-1,3,5(36)9,19,21,25,28,30,32,34-undecaen-13-yl acetate] | 0.072 | 0.48 | 0.217 | 1.4 | 4.2 | – | – | –
CO[C@H]1/C=C/O[C@@]2(C)Oc3c(C)c(O)c4c(=O)c(c5oc6cc(N7CCN(CC(C)C)CC7)cc(OCc7ccc(CN8CCN(C)CC8)cc7)c6nc-5c4c3C2=O)NC(=O)/C(C)=C\C=C\[C@H](C)[C@H](O)[C@@H](C)[C@@H](O)[C@@H](C)[C@H](OC(C)=O)[C@@H]1C [Compound 17p, (7S,9E,11S,12R,13S,14R,15R,16R,17S,18S,19E,21Z)-2,15,17-trihydroxy-11-methoxy-3,7,12,14,16,18,22-heptamethyl-32-({4-[(4-methylpiperazin-1-yl)methyl]phenyl}methoxy)-30-[4-(2-methylpropyl)piperazin-1-yl]-6,23,37-trioxo-8,27,38-trioxa-24,34-diazahexacyclo-[23.11.1.1^4,7.0^5,36.0^26,35.0^28,33]octatriaconta-1,3,5(36)9,19,21,25,28,30,32,34-undecaen-13-yl acetate] | 0.035 | 0.20 | 0.092 | – | 3.7 | – | – | –
CO[C@H]1/C=C/O[C@@]2(C)Oc3c(C)c(O)c4c(=O)c(c5oc6cc(N7CCN(CC(=O)O)CC7)cc(C)c6nc-5c4c3C2=O)NC(=O)/C(C)=C\C=C\[C@H](C)[C@H](O)[C@@H](C)[C@@H](O)[C@@H](C)[C@H](OC(C)=O)[C@@H]1C [Compound 29h, 2-{4-[(7S,9E,11S,12R,13S,14R,15R,16R,17S,18S,19E,21Z)-13-(acetyloxy)-2,15,17-trihydroxy-11-methoxy-3,7,12,14,16,18,22,32-octamethyl-6,23,37-trioxo-8,27,38-trioxa-24,34-diazahexacyclo[23.11.1.1^4,7.0^5,36.0^26,35.0^28,33]octatriaconta-1,3,5(36)9,19,21,25,28,30,32,34-undecaen-30-yl]piperazin-1-yl}acetic acid] | 0.133 (≈ 0.125 µg/mL) | – | > 0.1 | 5.0 | 7.2 | – | – | –
CO[C@H]1/C=C/O[C@@]2(C)Oc3c(C)c(O)c4c(=O)c(c5oc6cccc(OCc7ccc(CN8CCOCC8)cc7)c6nc-5c4c3C2=O)NC(=O)/C(C)=C\C=C\[C@H](C)[C@H](O)[C@@H](C)[C@@H](O)[C@@H](C)[C@H](OC(C)=O)[C@@H]1C [Compound 16d, (7S,9E,11S,12R,13S,14R,15R,16R,17S,18S,19E,21Z)-2,15,17-Trihydroxy-11-methoxy-3,7,12,14,16,18,22-heptamethyl-32-({4-[(morpholin-4-yl)methyl]phenyl}methoxy)-6,23,37-trioxo-8,27,38-trioxa-24,34-diazahexacyclo[23.11.1.1^4,7.0^5,36.0^26,35.0^28,33]octatriaconta-1(36)2,4,9,19,21,25,28,30,32,34-undecaen-13-yl acetate] | 0.031 | 0.20 | 0.092 | 0.62 | 8.4 | – | – | –
CCC(=O)N1CCN(c2cc(C)c3nc4c5c6c7c(C)c(O)c5c(=O)c(c-4oc3c2)NC(=O)/C(C)=C\C=C\[C@H](C)[C@H](O)[C@@H](C)[C@@H](O)[C@@H](C)[C@H](OC(C)=O)[C@H](C)[C@@H](OC)/C=C/O[C@@](C)(O7)C6=O)CC1 [Compound 26e, (7S,9E,11S,12R,13S,14R,15R,16R,17S,18S,19E,21Z)-2,15,17-Trihydroxy-11-methoxy-3,7,12,14,16,18,22,32-octamethyl-6,23,37-trioxo-30-(4-propanoylpiperazin-1-yl)-8,27,38-trioxa-24,34-diazahexacyclo[23.11.1.1^4,7.0^5,36.0^26,35.0^28,33]octatriaconta-1(36)2,4,9,19,21,25,28,30,32,34-undecaen-13-yl acetate] | > 0.02 | 0.19 | 0.087 | – | – | – | – | –
CO[C@H]1/C=C/O[C@@]2(C)Oc3c(C)c(O)c4c(=O)c(c5oc6cc(N7CCN(C(=O)c8ccncc8)CC7)cc(OCc7ccc(CN8CCOCC8)cc7)c6nc-5c4c3C2=O)NC(=O)/C(C)=C\C=C\[C@H](C)[C@H](O)[C@@H](C)[C@@H](O)[C@@H](C)[C@H](OC(C)=O)[C@@H]1C [Compound 17n, 7S,9E,11S,12R,13S,14R,15R,16R,17S,18S,19E,21Z)-2,15,17-trihydroxy-11-methoxy-3,7,12,14,16,18,22-heptamethyl-32-{[4-(morpholin-4-ylmethyl)phenyl]methoxy}-6,23,37-trioxo-30-{4-[(pyridin-4-yl)carbonyl]piperazin-1-yl}-8,27,38-trioxa-24,34-diazahexacyclo[23.11.1.1^4,7.0^5,36.0^26,35.0^28,33]octatriaconta-1,3,5(36)9,19,21,25,28,30,32,34-undecaen-13-yl acetate] | 0.235 | 0.70 | 0.315 | 4.7 | 3.2 | – | – | –
CO[C@H]1/C=C/O[C@@]2(C)Oc3c(C)c(O)c4c(=O)c(c5oc6cc(C)cc(N7CCN(C(=O)c8cccc(-n9ccnc9)c8)CC7)c6nc-5c4c3C2=O)NC(=O)/C(C)=C\C=C\[C@H](C)[C@H](O)[C@@H](C)[C@@H](O)[C@@H](C)[C@H](OC(C)=O)[C@@H]1C [Compound 30f, (7S,9E,11S,12R,13S,14R,15R,16R,17S,18S,19E,21Z)-2,15,17-Trihydroxy-32-{4-[3-(1H-imidazol-1-yl)benzoyl]piperazin-1-yl}-11-methoxy-3,7,12,14,16,18,22,30-octamethyl-6,23,37-trioxo-8,27,38-trioxa-24,34-diazahexacyclo[23.11.1.1^4,7.0^5,36.0^26,35.0^28,33]octatriaconta-1(36)2,4,9,19,21,25,28,30,32,34-undecaen-13-yl acetate] | 0.117 | 0.24 | 0.11 | 0.57 | 2.7 | – | – | –
CO[C@H]1/C=C/O[C@@]2(C)Oc3c(C)c(O)c4c(c3C2=O)C2=NC3(CCN(CC(C)C)CC3)NC2=C(NC(=O)/C(C)=C\C=C\[C@H](C)[C@H](O)[C@@H](C)[C@@H](O)[C@@H](C)[C@H](OC(C)=O)[C@@H]1C)C4=O [RFB, rifabutin, reference compound] | 0.0023 (≈ 0.00195 µg/mL) | 0.02 | 0.01 (≈ 0.00847 µg/mL) | 0.01 | 0.94 | – | – | –
